In US12077503B2, “Substituted cyclic amides and their use as herbicides” (FMC CORPORATION, priority 2015, dated 2024):

Assays:
Type in all cases: in vivo
[1] = system: redroot pigweed (Amaranthus retroflexus); assay: Test G Post-Emergence Protocol; details: Amaranthus retroflexus, post-emergence, 312 h; for pest or weed control at 15.625 g/ha: 15.625 g ai/ha, evaluated after 13 days (100=total damage to plant; 0=no damage to plant), read-out: Pigweed, Redroot damage rating; for pest or weed control at 62.5 g/ha: 62.5 g ai/ha, read-out: Pigweed, Redroot damage rating (100=total damage to plant; 0=no damage to plant); for pest or weed control at 62.5 g/ha / pest or weed control at 250 g/ha: evaluated after 13 days; for pest or weed control at 250 g/ha: 250 g ai/ha, read-out: damage to plant, Pigweed, Redroot (100=total damage to plant; 0=no damage to plant)
How it was run: (§1)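 Foliar application was made 8 days after sowing, using an aqueous spray of the active in acetone/water (50:50) with 0.5% Tween 20, at doses of 15.625, 62.5 or 250 g/ha. Injury was assessed 13 days later, where 100 meant the plant was fully damaged.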

[2] = system: giant foxtail (Setaria faberi); assay: Test G Post-Emergence Protocol; details: Setaria faberi, post-emergence, 312 h; for pest or weed control at 15.625 g/ha: 15.625 g ai/ha, evaluated after 13 days (100=total damage to plant; 0=no damage to plant), read-out: Foxtail, Giant damage rating; for pest or weed control at 62.5 g/ha: 62.5 g ai/ha, read-out: Foxtail, Giant damage rating (100=total damage to plant; 0=no damage to plant); for pest or weed control at 62.5 g/ha / pest or weed control at 250 g/ha: evaluated after 13 days; for pest or weed control at 250 g/ha: 250 g ai/ha, read-out: damage to plant, Foxtail, Giant (100=total damage to plant; 0=no damage to plant)
How it was run: as §1

[3] = system: corn (Zea mays); assay: Test G Post-Emergence Protocol; details: Zea mays, post-emergence, 312 h; for plant injury at 15.625 g/ha: 15.625 g ai/ha, evaluated after 13 days (100=total damage to plant; 0=no damage to plant), read-out: Corn damage rating; for plant injury at 62.5 g/ha: 62.5 g ai/ha, read-out: Corn damage rating (100=total damage to plant; 0=no damage to plant); for plant injury at 62.5 g/ha / plant injury at 250 g/ha: evaluated after 13 days; for plant injury at 250 g/ha: 250 g ai/ha, read-out: damage to plant, Corn (100=total damage to plant; 0=no damage to plant)
How it was run: as §1

[4] = system: ivy-leaved morning glory (Ipomoea hederacea); assay: Test G Post-Emergence Protocol; details: Ipomoea, post-emergence, 312 h; for pest or weed control at 15.625 g/ha: 15.625 g ai/ha, evaluated after 13 days (100=total damage to plant; 0=no damage to plant), read-out: Morningglory, Ivy-leaved damage rating; for pest or weed control at 62.5 g/ha: 62.5 g ai/ha, read-out: Morningglory, Ivy-leaved damage rating (100=total damage to plant; 0=no damage to plant); for pest or weed control at 62.5 g/ha / pest or weed control at 250 g/ha: evaluated after 13 days; for pest or weed control at 250 g/ha: 250 g ai/ha, read-out: damage to plant, Morningglory, Ivy-leaved (100=total damage to plant; 0=no damage to plant)
How it was run: as §1

[5] = system: barnyardgrass (Echinochloa crus-galli); assay: Test G Post-Emergence Protocol; details: Echinochloa crus-galli, post-emergence, 312 h; for pest or weed control at 15.625 g/ha: 15.625 g ai/ha, evaluated after 13 days (100=total damage to plant; 0=no damage to plant), read-out: Barnyardgrass damage rating; for pest or weed control at 62.5 g/ha: 62.5 g ai/ha, read-out: Barnyardgrass damage rating (100=total damage to plant; 0=no damage to plant); for pest or weed control at 62.5 g/ha / pest or weed control at 250 g/ha: evaluated after 13 days; for pest or weed control at 250 g/ha: 250 g ai/ha, read-out: damage to plant, Barnyardgrass (100=total damage to plant; 0=no damage to plant)
How it was run: as §1

[6] = system: velvetleaf (Abutilon theophrasti); assay: Test G Post-Emergence Protocol; details: Abutilon theophrasti, post-emergence, 312 h; for pest or weed control at 15.625 g/ha: 15.625 g ai/ha, evaluated after 13 days (100=total damage to plant; 0=no damage to plant), read-out: Velvetleaf damage rating; for pest or weed control at 62.5 g/ha: 62.5 g ai/ha, read-out: Velvetleaf damage rating (100=total damage to plant; 0=no damage to plant); for pest or weed control at 62.5 g/ha / pest or weed control at 250 g/ha: evaluated after 13 days; for pest or weed control at 250 g/ha: 250 g ai/ha, read-out: damage to plant, Velvetleaf (100=total damage to plant; 0=no damage to plant)
How it was run: as §1

[7] = system: redroot pigweed (Amaranthus retroflexus); assay: Test G Pre-Emergence Protocol; details: Amaranthus retroflexus, pre-emergence, 312 h, evaluated after 13 days; for pest or weed control at 15.625 g/ha: 15.625 g ai/ha; for pest or weed control at 15.625 g/ha / pest or weed control at 250 g/ha: read-out: Pigweed, Redroot damage rating (100=total damage to plant; 0=no damage to plant); for pest or weed control at 62.5 g/ha: 62.5 g ai/ha, 100=total damage to plant, 0=no damage to plant, read-out: plant damage rating, Pigweed, Redroot; for pest or weed control at 250 g/ha: 250 g ai/ha
How it was run: (§2)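 Pots of seeds in standard soil were grown for one day in a glasshouse (24/16 °C day/night, 14 h light, 65% humidity), then sprayed with compound in acetone/water 50:50 with 0.5% Tween 20 at 15.625, 62.5 or 250 g/ha. Damage was scored after 13 days on a 0 (none) to 100 (total) scale.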

[8] = system: giant foxtail (Setaria faberi); assay: Test G Pre-Emergence Protocol; details: Setaria faberi, pre-emergence, 312 h, evaluated after 13 days; for pest or weed control at 15.625 g/ha: 15.625 g ai/ha; for pest or weed control at 15.625 g/ha / pest or weed control at 250 g/ha: read-out: Foxtail, Giant damage rating (100=total damage to plant; 0=no damage to plant); for pest or weed control at 62.5 g/ha: 62.5 g ai/ha, 100=total damage to plant, 0=no damage to plant, read-out: plant damage rating, Foxtail, Giant; for pest or weed control at 250 g/ha: 250 g ai/ha
How it was run: as §2

[9] = system: corn (Zea mays); assay: Test G Pre-Emergence Protocol; details: Zea mays, pre-emergence, 312 h, evaluated after 13 days; for plant injury at 15.625 g/ha: 15.625 g ai/ha; for plant injury at 15.625 g/ha / plant injury at 250 g/ha: read-out: Corn damage rating (100=total damage to plant; 0=no damage to plant); for plant injury at 62.5 g/ha: 62.5 g ai/ha, 100=total damage to plant, 0=no damage to plant, read-out: plant damage rating, Corn; for plant injury at 250 g/ha: 250 g ai/ha
How it was run: as §2

[10] = system: ivy-leaved morning glory (Ipomoea hederacea); assay: Test G Pre-Emergence Protocol; details: Ipomoea, pre-emergence, 312 h, evaluated after 13 days; for pest or weed control at 15.625 g/ha: 15.625 g ai/ha, read-out: Morning-glory, Ivy-leaved damage rating (100=total damage to plant; 0=no damage to plant); for pest or weed control at 62.5 g/ha: 62.5 g ai/ha, 100=total damage to plant, 0=no damage to plant, read-out: plant damage rating, Morningglory, Ivy-leaved; for pest or weed control at 250 g/ha: 250 g ai/ha, read-out: Morningglory, Ivy-leaved damage rating (100=total damage to plant; 0=no damage to plant)
How it was run: as §2

[11] = system: barnyardgrass (Echinochloa crus-galli); assay: Test G Pre-Emergence Protocol; details: Echinochloa crus-galli, pre-emergence, 312 h, evaluated after 13 days; for pest or weed control at 15.625 g/ha: 15.625 g ai/ha, read-out: Barnyard grass damage rating (100=total damage to plant; 0=no damage to plant); for pest or weed control at 62.5 g/ha: 62.5 g ai/ha, 100=total damage to plant, 0=no damage to plant, read-out: plant damage rating, Barnyardgrass; for pest or weed control at 250 g/ha: 250 g ai/ha, read-out: Barnyardgrass damage rating (100=total damage to plant; 0=no damage to plant)
How it was run: as §2

[12] = system: velvetleaf (Abutilon theophrasti); assay: Test G Pre-Emergence Protocol; details: Abutilon theophrasti, pre-emergence, 312 h, evaluated after 13 days; for pest or weed control at 15.625 g/ha: 15.625 g ai/ha; for pest or weed control at 15.625 g/ha / pest or weed control at 250 g/ha: read-out: Velvetleaf damage rating (100=total damage to plant; 0=no damage to plant); for pest or weed control at 62.5 g/ha: 62.5 g ai/ha, 100=total damage to plant, 0=no damage to plant, read-out: plant damage rating, Velvetleaf; for pest or weed control at 250 g/ha: 250 g ai/ha
How it was run: as §2

| SMILES | pest or weed control at 15.625 g/ha [1] [%] | pest or weed control at 62.5 g/ha [1] [%] | pest or weed control at 250 g/ha [1] [%] | pest or weed control at 15.625 g/ha [2] [%] | pest or weed control at 62.5 g/ha [2] [%] | pest or weed control at 250 g/ha [2] [%] | plant injury at 15.625 g/ha [3] [%] | plant injury at 62.5 g/ha [3] [%] | plant injury at 250 g/ha [3] [%] | pest or weed control at 15.625 g/ha [4] [%] | pest or weed control at 62.5 g/ha [4] [%] | pest or weed control at 250 g/ha [4] [%] | pest or weed control at 15.625 g/ha [5] [%] | pest or weed control at 62.5 g/ha [5] [%] | pest or weed control at 250 g/ha [5] [%] | pest or weed control at 15.625 g/ha [6] [%] | pest or weed control at 62.5 g/ha [6] [%] | pest or weed control at 250 g/ha [6] [%] | pest or weed control at 15.625 g/ha [7] [%] | pest or weed control at 62.5 g/ha [7] [%] | further results |
| --- | --- | --- | --- | --- | --- | --- | --- | --- | --- | --- | --- | --- | --- | --- | --- | --- | --- | --- | --- | --- | --- |
| CN1C[C@@H](c2ccc(C(F)(F)F)cc2)[C@H](C(=O)Nc2ccccc2C#N)C1=O (racemic) [Compound 1599] | 0 | 50 | 50 | 60 | 80 | 80 | 0 | 0 | 40 | 50 | 60 | 50 | 10 | 70 | 70 | 0 | 30 | 40 | 0 | 40 | pest or weed control at 250 g/ha [7]: 70%; pest or weed control at 15.625 g/ha [8]: 20%; pest or weed control at 62.5 g/ha [8]: 60%; pest or weed control at 250 g/ha [8]: 80%; plant injury at 15.625 g/ha [9]: 0%; plant injury at 62.5 g/ha [9]: 10%; plant injury at 250 g/ha [9]: 40%; pest or weed control at 15.625 g/ha [10]: 10%; pest or weed control at 62.5 g/ha [10]: 10%; pest or weed control at 250 g/ha [10]: 10%; pest or weed control at 15.625 g/ha [11]: 0%; pest or weed control at 62.5 g/ha [11]: 70%; pest or weed control at 250 g/ha [11]: 70%; pest or weed control at 15.625 g/ha [12]: 0%; pest or weed control at 62.5 g/ha [12]: 30%; pest or weed control at 250 g/ha [12]: 20% |
| CN1C[C@H](c2ccc(C(F)F)cc2)[C@@H](C(=O)Nc2ccccc2F)C1=O (racemic) [Compound 1454] | 0 | 20 | 20 | 30 | 60 | 60 | 10 | 20 | 30 | 10 | 10 | 10 | 0 | 20 | 20 | 0 | 0 | 10 | 0 | 0 | pest or weed control at 250 g/ha [7]: 70%; pest or weed control at 15.625 g/ha [8]: 50%; pest or weed control at 62.5 g/ha [8]: 70%; pest or weed control at 250 g/ha [8]: 90%; plant injury at 15.625 g/ha [9]: 0%; plant injury at 62.5 g/ha [9]: 10%; plant injury at 250 g/ha [9]: 60%; pest or weed control at 15.625 g/ha [10]: 20%; pest or weed control at 62.5 g/ha [10]: 10%; pest or weed control at 250 g/ha [10]: 10%; pest or weed control at 15.625 g/ha [11]: 20%; pest or weed control at 62.5 g/ha [11]: 60%; pest or weed control at 250 g/ha [11]: 70%; pest or weed control at 15.625 g/ha [12]: 0%; pest or weed control at 62.5 g/ha [12]: 20%; pest or weed control at 250 g/ha [12]: 60% |
| CN1C[C@H](c2ccc(C(F)(F)F)cc2)[C@@H](C(=O)Nc2ncc(F)cc2F)C1=O (racemic) [Compound 1452] | 0 | 0 | 10 | 0 | 0 | 10 | 0 | 0 | 0 | 0 | 10 | 10 | 0 | 0 | 0 | 0 | 0 | 10 | 0 | 0 | pest or weed control at 250 g/ha [7]: 0%; pest or weed control at 15.625 g/ha [8]: 0%; pest or weed control at 62.5 g/ha [8]: 0%; pest or weed control at 250 g/ha [8]: 60%; plant injury at 15.625 g/ha [9]: 0%; plant injury at 62.5 g/ha [9]: 0%; plant injury at 250 g/ha [9]: 0%; pest or weed control at 15.625 g/ha [10]: 0%; pest or weed control at 62.5 g/ha [10]: 0%; pest or weed control at 250 g/ha [10]: 0%; pest or weed control at 15.625 g/ha [11]: 0%; pest or weed control at 62.5 g/ha [11]: 0%; pest or weed control at 250 g/ha [11]: 50%; pest or weed control at 15.625 g/ha [12]: 0%; pest or weed control at 62.5 g/ha [12]: 0%; pest or weed control at 250 g/ha [12]: 30% |
